Measured values taken from patent US4542145A, “Substituted N-[(1H-1,2,4-triazol-1-yl)-alkyl]heteroarylcarboxamides” (American Cyanamid Company, priority 1984, dated 1985).
Structures can show the parent of a compound that is named as a salt.

Columns and labels:
thromboxane synthetase = molecular target: T1, thromboxane synthetase (Rattus norvegicus, UniProt P49430); experiment: Inhibition of thromboxane (TXB2) formation in washed SHR platelets, RIA; type: cell-based, spontaneously hypertensive rats (Okamoto-Aoki); settings: 10 min, Dose 10^-4 (unit inferred), about 10 minutes at about 37° C.
T1 construct: The platelets were isolated by centrifuging the PRP; endogenous in cells; host or cells: washed platelets from arterial blood of Okamoto-Aoki spontaneously hypertensive rats (Taconic Farms)
T1 sequence (P49430 1-533): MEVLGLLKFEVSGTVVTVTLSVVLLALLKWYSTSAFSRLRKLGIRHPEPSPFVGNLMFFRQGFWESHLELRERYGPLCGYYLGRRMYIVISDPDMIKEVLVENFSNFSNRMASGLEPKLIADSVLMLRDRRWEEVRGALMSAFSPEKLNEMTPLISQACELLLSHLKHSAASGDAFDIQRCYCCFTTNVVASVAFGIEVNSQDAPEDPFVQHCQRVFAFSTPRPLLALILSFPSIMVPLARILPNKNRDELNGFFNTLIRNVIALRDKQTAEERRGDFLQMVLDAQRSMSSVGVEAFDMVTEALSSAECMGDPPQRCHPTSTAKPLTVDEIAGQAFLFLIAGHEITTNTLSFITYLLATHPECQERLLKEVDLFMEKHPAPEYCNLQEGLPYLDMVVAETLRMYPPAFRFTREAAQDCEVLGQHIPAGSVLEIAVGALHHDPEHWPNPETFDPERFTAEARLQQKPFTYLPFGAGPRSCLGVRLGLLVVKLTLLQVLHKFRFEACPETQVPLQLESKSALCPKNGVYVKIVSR
Method: Under urethan anesthesia, about 10 μl arterial blood was collected in approximately 1 ml. of about 3.2% sodium citrate in a polystyrene tube from Okamoto-Aoki spontaneously hypertensive rats (SHR) (Taconic Farms, Germantown, N.Y.) between 19 and 24 weeks in age. The blood was diluted with about 3 ml of cold saline and centrifuged at room temperature for about 15 minutes at 460 xg. The platelet rich plasma (PRP) was separated. The platelets were isolated by centrifuging the PRP for about 10 minutes at 1060 xg and were washed in about 4 ml of cold oxygenated Krebs phosphate buffer, about pH 7.4. The chilled platelets recovered from centrifuging at 800 xg for about 10 minutes were resuspended in oxygenated Krebs phosphate buffer and diluted to contain 4.5-6.0×10^4 platelets/μl.
The inhibition of thromboxane (TX) formation was studied by determining the concentration of thromboxane B2 (TXB2), the stable hydrolysis product of TXA2. Assay samples, prepared on ice, contained about 200 μl platelet suspension, about 50 μl saline and about 50 μl vehicle or drug under study. The samples were incubated for about 10 minutes at about 37° C. in a metabolic shaker. The reaction was terminated by immersing the tubes in an ice bath and adding about 50 μl of approximately 0.5 M citric acid. The samples were centrifuged for about 10 minutes in a refrigerated centrifuge and the supernatants thus obtained were decanted and stored at about-20° C. The TXB2 content for each sample was determined by a direct radioimmunoassay (RIA) utilizing a TXB2 specific RIA kit purchased from New England Nuclear, Boston, Mass. and expressed as pg TXB2 formed minute^-1 sample^-1, from which the percent inhibition of TXB2 formation was calculated.

[1] = system: spontaneously hypertensive rats; experiment: Hypotensive activity in spontaneously hypertensive rats (mean arterial blood pressure); type: in vivo, spontaneously hypertensive rats (Okamoto strain); settings: oral gavage, about 100 mg/kg or less, two doses 24 h apart, 0.9% NaCl loading with first; about 28 hours after initial dose; SHR average MABP 170±1.5 mm of mercury; (No. of rats) in parentheses
Method: The novel compounds of the present invention are active hypotensive agents and were tested for hypotensive activity by the method of P. S. Chan and D. Poorvin, Clinical and Experimental Hypertension, 1 (6), 817-830 (1979). Male, 16 week old, spontaneously hypertensive rats of the Okamoto strain, from Taconic Farms, Germantown, N.Y., having an average mean arterial blood pressure of 170±1.5 mm of mercury are used in the test. One to 3 rats are used per test compound. A rat is dosed by gavage with a test compound, suspended in approximately 2% pre-boiled starch at a concentration of about 50 mg/ml, at a dose of about 100 mg/kg of body weight or less, with approximately 0.9% sodium chloride loading at a dose of about 25 ml/kg of body weight. A second identical dose of the test compound, without sodium chloride loading is given about 24 hours later. At about 28 hours after the initial dose the mean arterial blood pressure is measured by the method of Chan and Poorvin vide supra. The procedure is repeated in a second and third rat when necessary.

Row | inhibition at 100 µM (thromboxane synthetase) | SMILES | MABP (mean arterial blood pressure) [1]
1 | 90% | O=C(NCCn1cncn1)c1sc2ccccc2c1Cl [3-Chloro-N-[2-(1H-1,2,4-triazol-1-yl)ethyl]-benzo[b]thiophene-2-carboxamide] | –
2 | 90% | O=C(NCCCCn1cncn1)c1sc2ccccc2c1Cl [3-Chloro-N-[4-(1H-1,2,4-triazol-1-yl)-butyl]benzo[b]thiophene-2-carboxamide] | 119 m Hg
3 | 60% | O=C(NCCCn1cncn1)c1sc2ccccc2c1Cl [3-chloro-N--[3-(1H--1,2,4-triazol-1-yl)propyl]-benzo[b]thiophene-2-carboxamide] | 137 m Hg
4 | 86% | O=C(NCCCn1cncn1)c1cc(Br)c(Br)s1 [4,5-dibromo-N--[3-(1H--1,2,4-triazol-1-yl)-propyl]-2-thiophene-carboxamide] | 137 m Hg
5 | 70% | O=C(NCCCn1cncn1)c1ccc([N+](=O)[O-])o1 [5-Nitro-N-[3-(1H-1,2,4-triazol-y)propyl]-2-furancarboxamide] | 132 m Hg
6 | 61% | O=C(NCCCn1cncn1)c1ccc(Br)o1 [5-bromo-N--[3-(1H--1,2,4-triazol-1-yl)propyl]-2-furancarboxamide] | 107 m Hg
7 | 64% | O=C(NCCCn1cncn1)c1ccc(Cl)s1 [5-chloro-N--[3-(1H--1,2,4-triazol-1-yl)propyl]-2-thiophenecarboxamide] | 135 m Hg
8 | 56% | Cc1ccc(C(=O)NCCCn2cncn2)s1 [5-methyl-N--[3-(1H--1,2,4-triazol-1-yl)propyl]-2-thiophenecarboxamide] | –
9 | 84% | O=C(NCCCn1cncn1)c1cc2ccccc2o1 [N--[3-(1H--1,2,4-triazol-1-yl)propyl]-2-benzo-furancarboxamide] | 135 m Hg
10 | – | O=C(NCCCn1cncn1)c1ccco1 [N--[3-(1H--1,2,4-triazol-1-yl)propyl]-2-furancarboxamide, fumarate] | 116 m Hg
11 | 30% | O=C(NCCCn1cncn1)c1cccs1 [N--[3-(1H--1,2,4-triazol-1-yl)propyl]-2-thio-phenecarboxamide] | 130 m Hg
12 | 68% | O=C(C=Cc1cccs1)NCCCn1cncn1 [N--[3-(1H--1,2,4-triazol-1-yl)propyl]-3-(2-thien-yl)-2-propenamide] | –
13 | 55% | O=C(NCCCn1cncn1)c1ccoc1 [N--[3-(1H--1,2,4-triazol-1-yl)propyl]-3-furan-carboxamide] | 135 m Hg
14 | 65% | O=C(NCCCn1cncn1)c1ccco1 [N-[3-(1H-1,2,4-Triazol-1-yl)propyl]-2-furancarboxamide] | –
